Measurements from article PMC9005681, “Use of AD Informer Set compounds to explore validity of novel targets in Alzheimer's disease pathology” (Alzheimer's & Dementia : Translational Research & Clinical …, 2022).
Like-named read-outs stand apart in the source and are kept apart here.

Key:
[1] = molecular target: T1, H4 receptor (Homo sapiens, UniProt Q9H3N8); assay: PDSP secondary binding, H4; design: species or system human or rodent
T1 construct: expressed in transfected cells
Description: (§1) GPCR panel: Screening against the receptors within the PDSP panel offers an assessment of off-target pharmacological activity at cloned human or rodent CNS receptors, channels, and transporters that could confound CNS-related phenotypes. A total of 46–47 primary binding assays were run in quadruplicate on these compounds at 10 μM, with follow-up secondary binding assays in 11-point dose-response in triplicate for select compounds versus select receptors. Secondary binding assays were executed for all receptors where test compound displaced an average of >50% of radio-labeled standard ligand. As an exception, no secondary assays were carried out for H3, PBR, or GABAA. […]

[2] = system: MerTK; design: method as in PubMed 25068800, 27649555; settings: published affinity; ref PubMed 25068800, 27649555; cited from earlier work
[3] = system: FLT3; design: method as in PubMed 25068800, 27649555; settings: published affinity; ref PubMed 25068800, 27649555; cited from earlier work
[4] = molecular target: T2, serotonin transporter (Homo sapiens, UniProt P31645); assay: PDSP secondary binding, serotonin transporter; design: species or system human or rodent
T2 construct: expressed in transfected cells
Description: as §1

[5] = molecular target: T3, Alpha1D receptor (Homo sapiens, UniProt P25100); assay: PDSP secondary binding, Alpha1D; design: species or system human or rodent
T3 construct: expressed in transfected cells
Description: as §1

[6] = system: tau hyperphosphorylation species (Ser396 and Ser404); design: method as in PMID 32488482; settings: 5 mg/kg/day; cited from earlier work
[7] = system: N2a cells stably expressing wild-type PS1 and myc-tagged Swedish mutant APP (APPsw); design: method as in PMID 16354722; settings: cited from earlier work

T1 sequence (Q9H3N8 whole entry): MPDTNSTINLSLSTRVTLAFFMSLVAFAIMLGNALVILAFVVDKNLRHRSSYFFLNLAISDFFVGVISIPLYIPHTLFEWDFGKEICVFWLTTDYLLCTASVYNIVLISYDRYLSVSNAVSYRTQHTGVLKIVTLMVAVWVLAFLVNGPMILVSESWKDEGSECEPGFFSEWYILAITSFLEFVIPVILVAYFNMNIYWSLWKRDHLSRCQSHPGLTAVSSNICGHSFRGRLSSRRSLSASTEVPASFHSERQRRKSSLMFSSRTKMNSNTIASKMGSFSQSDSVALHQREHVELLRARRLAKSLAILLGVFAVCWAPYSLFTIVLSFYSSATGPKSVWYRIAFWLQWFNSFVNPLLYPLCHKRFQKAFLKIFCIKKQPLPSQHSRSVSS
T2 sequence (P31645 whole entry): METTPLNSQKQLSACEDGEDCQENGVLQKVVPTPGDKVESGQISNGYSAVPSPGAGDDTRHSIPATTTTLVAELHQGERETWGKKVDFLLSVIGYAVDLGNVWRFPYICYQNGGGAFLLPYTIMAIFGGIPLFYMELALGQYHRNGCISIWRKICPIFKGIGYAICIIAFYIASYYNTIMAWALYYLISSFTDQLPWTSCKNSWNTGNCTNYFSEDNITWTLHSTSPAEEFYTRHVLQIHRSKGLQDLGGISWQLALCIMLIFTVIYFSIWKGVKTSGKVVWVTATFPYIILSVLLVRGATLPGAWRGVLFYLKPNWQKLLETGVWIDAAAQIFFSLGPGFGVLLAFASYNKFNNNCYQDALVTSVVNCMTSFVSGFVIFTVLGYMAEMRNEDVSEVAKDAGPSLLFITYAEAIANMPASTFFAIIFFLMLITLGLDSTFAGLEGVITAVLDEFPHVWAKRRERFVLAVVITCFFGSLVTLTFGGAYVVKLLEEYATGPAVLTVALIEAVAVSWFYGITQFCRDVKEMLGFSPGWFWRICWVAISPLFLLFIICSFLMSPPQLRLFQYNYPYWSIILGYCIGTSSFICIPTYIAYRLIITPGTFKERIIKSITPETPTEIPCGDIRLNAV
T3 sequence (P25100 whole entry): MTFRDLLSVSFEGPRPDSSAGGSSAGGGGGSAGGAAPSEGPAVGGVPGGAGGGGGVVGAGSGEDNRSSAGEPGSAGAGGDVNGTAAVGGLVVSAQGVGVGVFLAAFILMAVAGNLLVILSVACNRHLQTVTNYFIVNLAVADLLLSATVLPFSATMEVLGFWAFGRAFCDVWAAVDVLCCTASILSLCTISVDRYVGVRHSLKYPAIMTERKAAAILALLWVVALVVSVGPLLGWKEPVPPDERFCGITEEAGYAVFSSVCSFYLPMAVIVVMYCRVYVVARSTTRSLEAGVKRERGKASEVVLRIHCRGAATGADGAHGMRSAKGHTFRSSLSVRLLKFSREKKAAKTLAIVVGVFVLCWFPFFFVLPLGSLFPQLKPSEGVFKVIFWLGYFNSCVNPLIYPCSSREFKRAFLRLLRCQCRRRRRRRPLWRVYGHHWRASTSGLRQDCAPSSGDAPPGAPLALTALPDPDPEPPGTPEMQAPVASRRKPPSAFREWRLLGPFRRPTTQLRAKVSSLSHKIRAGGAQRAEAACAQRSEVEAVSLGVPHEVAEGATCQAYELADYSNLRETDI

CCCCNc1ncc2c(-c3ccc(CN4CCN(C)CC4)cc3)cn([C@H]3CC[C@H](O)CC3)c2n1 [UNC2025C, UNC2025]
Ki ([1]; Receptor H4, secondary assay, read-out: Ki (nM) 1): 4000 nM | Ki ([1]; calculated Ki, secondary binding assay, read-out: Ki H4): 4000 nM | Reported on-target biochemical potency, MERTK [2]: 0.00074 µM | Reported on-target biochemical potency, FLT3 [3]: 0.0008 µM | Ki ([4]; Receptor SERT, secondary assay, read-out: Ki (nM) 1): 906 nM | Ki ([4]; calculated Ki, secondary binding assay, read-out: Ki serotonin transporter): 900 nM | Ki ([5]; Receptor Alpha1D, secondary assay, read-out: Ki (nM) 1): 4960 nM | Ki ([5]; calculated Ki, secondary binding assay, read-out: Ki Alpha1D): 5000 nM

CCC(=O)N1CCC(NC(=O)Nc2ccc(OC(F)(F)F)cc2)CC1 [UNC10302681A, TPPU]
Tau hyperphosphorylation species (Ser396 and Ser404) [6]: reduction of tau hyperphosphorylation species

MDL 28170 [UNC10302675A]
Secretion of Aβ40 and Aβ42 ([7]; 30 μM for 24 hours): did not inhibit | Levels of secreted Aβ40 and Aβ42 ([7]; 30 μM, between 24 and 48 hours): increased dramatically | Response in secreted Aβ40 or Aβ42 ([7]; concentrations < 5 μM, 48 hours): did not result in a response
